Where two headings read alike, the source gives them in different places. Marks after values point to notes of the source that are not given here.
Legend:
[1] = system: prise de nourriture chez le rat; experiment: Anorectic activity, food intake method in the rat; assay type: in vivo; details: for A/B (index thérapeutique lié à la toxicité aiguë): DL50/DE50; for ED50: 1 h, rat, 30 minutes before food, food consumed in first hour, read-out: B DE50 (dose inhibant de 50% la prise de nourriture)
Description: L'activité anorexigène a été évaluée par la méthode de la prise de nourriture chez le rat. On a utilisé des rats femelles de 200 g entrainés pendant 10 jours à manger durant une période de 4 heures et sélectionnés au huitième jour. Au bout du dixième jour, les animaux randomisés ont été divisés en un "groupe contrôle", traité par le seul véhicule, et en plusieurs "groupes traités". Le traitement a été effectué par voie orale et/ou intrapéritonéale 30 minutes avant la présentation de la nourriture et, ensuite, on a mesuré la quantité de nourriture consommée au cours de la première heure.
(§1) Dans le tableau I sont reportés, pour cinq composés représentatifs utiles comme ingrédients actifs dans les compositions selon l'invention: • - la toxicité aiguë, exprimée comme DL50 chez le rat par voie orale ou par voie intrapéritonéale (donnée A); • - l'activité anorexigène, exprimée comme dose orale ou intrapéritonéale inhibant de 50% la prise de nourriture (DE50, donnée B); • - le rapport entre la toxicité aiguë et l'activité anorexigène qui exprime l'index thérapeutique lié à la toxicité aiguë (donnée A/B).

[2] = target: récepteurs post-synaptiques de la sérotonine; experiment: 3H-serotonin binding to rat cortex membranes (Peroutka and Snyder method); details: fixed concentration of 3H-serotonin
Source text: L'affinité des composés de la présente invention pour les récepteurs post-synaptiques de la' sérotonine a été déterminée selon la méthode de Peroutka et Snyder (Molec. Pharmacol. 1979, 16, 687-699) qui consiste à incuber des membranes de cortex de rat avec une concentration fixée de ^3H-sérotonine en présence de différentes concentrations de produit. Le tableau III montre la concentration molare de trois ingrédients actifs représentatifs de la présente invention qui donne une inhibition de 50% du binding spécifique au récepteur sérotoninergique (IC50), à savoir la mesure de la capacité du produit d'intéragir avec la ^3H-sérotonine dans le binding à son récepteur. La fenfluramine et la 3-(3-trifluorométhylphényl)-1-propyl-1,2,5,6-tétrahydropyridine (Composé A), décrite par le brevet allemand 2 904 826, ont été utilisées comme composés de référence.

[3] = Acute toxicity (DL50) in the rat; details: in vivo
Source text: as §1

[4] = system: taux cérébraux de sérotonine; experiment: Brain serotonin levels after administration (Curzon and Green method); assay type: in vivo
Source text: En particulier, les composés utilisés comme principes actifs des compositions pharmaceutiques de la présente invention, in vivo, ne provoquent pas de déplétion de sérotonine au niveau central. Le tableau II ci-dessous résume les taux cérébraux de sérotonine, en pourcentage par rapport aux contrôles, après administration orale ou intrapéritonéale de quatre ingrédients actifs des compositions pharmaceutiques de la présente invention. La détermination des taux cérébraux, selon Curzon et Green (Brit. J. Pharmacol. 39, 653, 1970), a été effectuée une heure et/ou deux heures après l'administration. La fenfluramine a été utilisée comme produit de référence.

SMILES	A/B (index thérapeutique lié à la toxicité aiguë) ([1]; i.p.)	ED50 ([1]; ip, i.p.)	A/B (index thérapeutique lié à la toxicité aiguë) ([1]; os)	ED50 ([1]; po, os)	IC50 [2]	LD50 ([3]; ip)	LD50 ([3]; po, os)	taux cérébraux de sérotonine (result in words) ([4]; at anorectic doses)	taux cérébraux de sérotonine % par rapport aux contrôles ([4]; i.p., 5,0 mg/kg, 1 h.)	taux cérébraux de sérotonine % par rapport aux contrôles ([4]; i.p., 7,5 mg/kg, 1 h.)	taux cérébraux de sérotonine % par rapport aux contrôles ([4]; i.p., 7,5 mg/kg, 2 h.)	taux cérébraux de sérotonine % par rapport aux contrôles ([4]; os, 15 mg/kg, 2 h.)	taux cérébraux de sérotonine % par rapport aux contrôles ([4]; os, 7,5 mg/kg, 2 h.)	taux cérébraux de sérotonine % par rapport aux contrôles ([4]; i.p., 15 mg/kg, 2 h.)	taux cérébraux de sérotonine % par rapport aux contrôles ([4]; i.p., 15 mg/kg, 1 h.)	taux cérébraux de sérotonine % par rapport aux contrôles ([4]; i.p., 30 mg/kg, 2 h.)
CCNC(C)Cc1cccc(C(F)(F)F)c1 (stereo not drawn) [fenfluramine, reference compound]	15,8	5.4 mg/kg	25,1	4 mg/kg	> 10 µM	85.6 mg/kg	100 mg/kg	réduction importante de sérotonine cérébrale	82,9 * %	81,6 * %	53,1 ** %					
CN1CC=C(c2cccc(C(F)(F)F)c2)CC1 [CM 57548, chlorhydratede 4-(3-trifluorométhylphényl)-1-méthyl-1,2,3,6-tétrahydropyridine]	15,2	12.2 mg/kg				186 mg/kg										
CCCCCN1CC=C(c2cccc(C(F)(F)F)c2)CC1 [CM 57756, chlorhydratede 4-(3-trifluorométhylphényl)-1-n-pentyl-1,2,3,6-tétrahydropyridine]			35,4	8.8 mg/kg			311 mg/kg					125 * %	138 ** %			
CCCN1CC=C(c2cccc(C(F)(F)F)c2)CC1 [CM 57545, chlorhydratede 4-(3-trifluorométhylphényl)-1-propyl-1,2,3,6-tétrahydropyridine]	17,7	7 mg/kg	22,2	8 mg/kg		124 mg/kg	178 mg/kg				103%			112%		
FC(F)(F)c1cccc(C2=CCN(Cc3ccccc3)CC2)c1 [CM 57451, chlorhydratede 4-(3-trifluorométhylphényl)-1-benzyl-1,2,3,6-tétrahydropyridine]	14,6	15 mg/kg	33,3	18 mg/kg		220 mg/kg	600 mg/kg							112,0%	121,2%	119,0%
FC(F)(F)c1cccc(C2=CCNCC2)c1 [CM 57235, chlorhydratede 4-(3-triflüorométhylphényl)-1,2,3,6-tétrahydropyridine]	11,2	8.4 mg/kg	22	15.7 mg/kg		94.6 mg/kg	346 mg/kg				112,0%			102%	106%	

From patent EP0060179A1, “Pharmaceutical compositions having anorectic activity” (SANOFI S.A., priority 1981, dated 1982)
